Source: ChEMBL document CHEMBL3813627, “Preventive effect of a novel diosgenin derivative on arterial and venous thrombosis in vivo” (Bioorg Med Chem Lett, 2016)
The source made the active and inactive calls. The calls are words filed in the database; no cut-off is given here.

Assays:
[1] = tested on: Rattus norvegicus; experiment: In vivo activation of coagulation factor12 in Sprague-Dawley rat at 20 mg/kg, ig bid for 7 days by automated coagulometry; type: functional, organism-based
[2] = tested on: Rattus norvegicus; experiment: Anti-thrombotic activity in Sprague-Dawley rat model of FeCl3-induced arterial thrombosis assessed as reduction in arterial thrombus weight at 20 mg/kg, ig bid for 7 days; type: functional, organism-based
[3] = tested on: Rattus norvegicus; experiment: Anticoagulant activity in platelet-rich plasma isolated from Sprague-Dawley rat assessed as prothrombin time at 20 mg/kg, ig bid for 7 days (reference value: 11.6 +/- 0.98 secs); type: functional
[4] = tested on: Rattus norvegicus; experiment: Antiplatelet activity in platelet-rich plasma isolated from Sprague-Dawley rat assessed as ADP-induced platelet aggregation at 20 mg/kg, ig bid for 7 days measured for 5 mins by light transmission aggregometry (reference value: 57.57 +/- 2.43 %); type: functional
[5] = tested on: Rattus norvegicus; experiment: Anti-thrombotic activity in Sprague-Dawley rat model of FeCl3-induced venous thrombosis assessed as reduction in venous thrombus weight at 46 mg/kg, ig bid for 7 days; type: functional, organism-based
[6] = tested on: Rattus norvegicus; experiment: Anti-thrombotic activity in Sprague-Dawley rat model of FeCl3-induced venous thrombosis assessed as reduction in venous thrombus length at 46 mg/kg, ig bid for 7 days by vernier caliper method; type: functional, organism-based
[7] = tested on: Mus musculus; experiment: Toxicity in Balb/c mouse assessed as hematocrit at 28.8 mg/kg, ig bid for 7 days (reference value: 40.5 +/- 3.5 %); type: organism-based; conditions: in vivo, po, 168 h
[8] = tested on: Rattus norvegicus; experiment: In vivo activation of coagulation factor8 in Sprague-Dawley rat at 20 mg/kg, ig bid for 7 days by automated coagulometry; type: functional, organism-based
[9] = tested on: Mus musculus; experiment: Toxicity in Balb/c mouse assessed as tail bleeding time at 28.8 mg/kg, ig bid for 7 days (reference value: 186 +/- 12 sec); type: organism-based; conditions: in vivo, po
[10] = tested on: Rattus norvegicus; experiment: Anticoagulant activity in platelet-rich plasma isolated from Sprague-Dawley rat assessed as activated partial thromboplastin time at 20 mg/kg, ig bid for 7 days (reference value: 17.6 +/- 0.92 secs); type: functional
[11] = species on record: Rattus norvegicus; experiment: Gastric toxicity in Sprague-Dawley rat assessed as angiogenesis treated for 49 days by hematoxylin and eosin staining based microscopic analysis; type: organism-based; conditions: in vivo, 1176 h
[12] = tested on: Rattus norvegicus; experiment: In vivo activation of coagulation factor10 in Sprague-Dawley rat at 20 mg/kg, ig bid for 7 days by automated coagulometry; type: functional, organism-based
[13] = tested on: Mus musculus; experiment: Toxicity in Balb/c mouse assessed as white blood cell count at 28.8 mg/kg, ig bid for 7 days (reference value: 7.7 +/- 0.65 10^9/L); type: organism-based; conditions: in vivo, po, 168 h
[14] = tested on: Mus musculus; experiment: Toxicity in Balb/c mouse assessed as red blood cell count at 28.8 mg/kg, ig bid for 7 days (reference value: 7.55 +/- 0.59 10^12/L); type: organism-based; conditions: in vivo, po, 168 h
[15] = species on record: Rattus norvegicus; experiment: Gastric toxicity in Sprague-Dawley rat assessed as gastric mucosal damage score treated for 49 days by hematoxylin and eosin staining based microscopic analysis; type: organism-based, Gastric mucosa; conditions: in vivo, 1176 h
[16] = tested on: Rattus norvegicus; experiment: Anticoagulant activity in platelet-rich plasma isolated from Sprague-Dawley rat assessed as thrombin time at 20 mg/kg, ig bid for 7 days (reference value: 47.1 +/- 3.1 secs); type: functional
[17] = tested on: Rattus norvegicus; experiment: Anti-thrombotic activity in Sprague-Dawley rat model of FeCl3-induced arterial thrombosis assessed as reduction in arterial thrombus length at 20 mg/kg, ig bid for 7 days by vernier caliper method; type: functional, organism-based
[18] = tested on: Mus musculus; experiment: Toxicity in Balb/c mouse assessed as hemoglobin count at 28.8 mg/kg, ig bid for 7 days (reference value: 143 +/- 11.9 g/L); type: organism-based; conditions: in vivo, po, 168 h
[19] = tested on: Rattus norvegicus; experiment: In vivo activation of coagulation factor9 in Sprague-Dawley rat at 20 mg/kg, ig bid for 7 days by automated coagulometry; type: functional, organism-based
[20] = tested on: Rattus norvegicus; experiment: In vivo activation of coagulation factor11 in Sprague-Dawley rat at 20 mg/kg, ig bid for 7 days by automated coagulometry; type: functional, organism-based
[21] = species on record: Rattus norvegicus; experiment: Gastric toxicity in Sprague-Dawley rat assessed as fibrotic changes treated for 49 days by hematoxylin and eosin staining based microscopic analysis; type: organism-based; conditions: in vivo, 1176 h
[22] = tested on: Mus musculus; experiment: Toxicity in Balb/c mouse assessed as platelet count at 28.8 mg/kg, ig bid for 7 days (reference value: 802 +/- 74 10^9/L); type: organism-based; conditions: in vivo, po, 168 h

## CC(=O)Oc1ccccc1C(=O)O [ASPIRIN]
[1]
  Activity: inactive
[2]
  Activity: Active
[3]
  PT: 10.5 s
[4]
  Activity: 28.85%
[5]
  Activity: Active
[6]
  Activity: Active
[7]
  Activity: 43.8%
[8]
  Activity: inactive
[9]
  Time: > 900 s
[10]
  APTT: 18 s
[11]
  Activity: Toxic
[12]
  Activity: inactive
[13]
  Activity: 7.84 ×10⁹ /L
[14]
  Activity: 7.62 ×10¹² /L
[15]
  UI: 20.66
[16]
  TT: 45.3 s
[17]
  Activity: Active
[18]
  Activity: 150 g/L
[19]
  Activity: inactive
[20]
  Activity: inactive
[21]
  Activity: Toxic
[22]
  Activity: 651 ×10⁹ /L
